According to ChEMBL document CHEMBL5576052, “Design, synthesis, and biological evaluation of new bis-benzylisoquinoline-based analogues as potential neuromuscular blocking agents” (Bioorg Med Chem Lett, 2024):

Tests used:
Type in all cases: functional
[1] = system: Oryctolagus cuniculus; experiment: Neuromuscular blocking in rabbit model of propofol-induced anesthesia assessed as time duration of 75 to 90 percent recovery indices at 0.33 mg/kg of inductive dose with continuous infusion of compound measured for 0.5 hrs by train-of-four response method
[2] = system: Oryctolagus cuniculus; experiment: Neuromuscular blocking in rabbit model of propofol-induced anesthesia assessed as time duration of 25 to 75 percent recovery indices at 272.7 nmol/kg by train-of-four response method
[3] = system: Oryctolagus cuniculus; experiment: Neuromuscular blocking in rabbit model of propofol-induced anesthesia assessed as duration of time for maximal blockade at 272.7 nmol/kg by train-of-four response method
[4] = system: Oryctolagus cuniculus; experiment: Neuromuscular blocking in rabbit model of propofol-induced anesthesia assessed as time duration of 25 to 75 percent recovery indices at 0.33 mg/kg of inductive dose with continuous infusion of compound measured for 0.5 hrs by train-of-four response method
[5] = system: Oryctolagus cuniculus; experiment: Neuromuscular blocking in rabbit model of propofol-induced anesthesia assessed as time duration of 25 to 90 percent recovery indices at 272.7 nmol/kg by train-of-four response method
[6] = system: Oryctolagus cuniculus; experiment: Neuromuscular blocking in rabbit model of propofol-induced anesthesia assessed as maximal blockade at 272.7 nmol/kg by train-of-four response method relative to control
[7] = system: Oryctolagus cuniculus; experiment: Neuromuscular blocking in rabbit model of propofol-induced anesthesia assessed as time duration of 25 to 90 percent recovery indices at 0.33 mg/kg of inductive dose with continuous infusion of compound measured for 0.5 hrs by train-of-four response method
[8] = system: Oryctolagus cuniculus; experiment: Neuromuscular blocking in rabbit model of propofol-induced anesthesia assessed as effective blocking time by measuring duration from administration to 25 percent recovery at 272.7 nmol/kg by train-of-four response method
[9] = system: Oryctolagus cuniculus; experiment: Neuromuscular blocking in rabbit model of propofol-induced anesthesia assessed as onset time at 272.7 nmol/kg by train-of-four response method

`COc1cc2c(cc1OC)[C@@H](Cc1cc(OC)c(OC)c(OC)c1)[N+](C)(CCC(=O)OC/C=C\COC(=O)CC[N+]1(C)CCc3cc(OC)c(OC)cc3[C@H]1Cc1cc(OC)c(OC)c(OC)c1)CC2.O=S(=O)([O-])c1ccccc1.O=S(=O)([O-])c1ccccc1` (some centres undefined) gave a Time [1] of 3.17 min, a Time [2] of 7.5 min and a Time [3] of 8.25 min. The Time [4] was 8 min, the Time [5] was 10.25 min and the Emax at 0.2727 µmol/kg [6] was 100%. It also gave a Time [7] of 11.17 min, a Time [8] of 11.83 min and a Time [9] of 1.67 min.
